Reference: paper PMC13534789, “Molecular Glue Degraders Enhance CAPRIN1‐Dependent Lysosomal Degradation of APP and Reduce Amyloid β in Alzheimer's Disease” (Advanced Science, 2026)

Assays:
APP mRNA = assay: qRT-PCR of APP mRNA; assay type: cell-based, human; details: 72 h
Method: Total RNA was isolated using the RNeasy kit (Qiagen), followed by synthesis for cDNA with a reverse transcription reaction (Quantitect Reverse Transcription kit). The sequences for APP and GAPDH are in Table S1. Quantitative PCR was performed on QuantStudio 6 Flex (Applied Biosystems). The expression levels of APP were normalized to the GAPDH mRNA levels and represented relative to the expression in control cells. The results were analyzed with the delta‐delta‐Ct methods. Ct values were calculated using QuantStudio Design & Analysis Software, and relative expression levels were analyzed with GraphPad Prism.

[1] = test system: CAPRIN1, G3BP1, BACE1, ADAM10, PSEN1, nicastrin, GGA1, Sorla, neprilysin; assay: Western blot of CAPRIN1, G3BP1 and other AD-related proteins; assay type: cell-based, human; details: 10 µM

## N#Cc1cccc(NC(=O)Nc2nc3ccc(C(=O)N4CCOCC4)cc3s2)c1 [compound 0043]
APP mRNA; AD iPSC-Ns
  APP mRNA expression (qRT-PCR): nor did it alter APP mRNA expression
APP mRNA; HEK-APP695WT cells
  APP mRNA (qRT-PCR): no significant changes
[1]; HEK-APP695WT cells, 12–72 h
  CAPRIN1 and G3BP1 protein levels: no effect
[1]; SAD2.3-Ns, 72 h
  Levels of other AD-related proteins (BACE1, ADAM10, PSEN1, nicastrin, GGA1, Sorla, neprilysin): did not affect levels
